Test results reported in patent publication US9650361B2, “N-(pyridin-2-yl)pyrimidin-4-amine derivatives containing a sulfoximine group” (BAYER PHARAM AKTIENGESELLSCHAFT, priority 2012, dated 2017).

Columns and labels:
CDK2/CycE = target: T1, CDK2/CycE (Homo sapiens, UniProt P24941); assay: CDK2/CycE high ATP kinase assay (Method 2b); assay type: biochemical; conditions: 2 mM ATP
T1 construct: GST; purchased ProQinase GmbH (Freiburg, Germany); host or cells: insect cells (Sf9)
Protocol: 2b. CDK2/CycE High ATP Kinase Assay:
CDK2/CycE-inhibitory activity of compounds of the present invention at 2 mM adenosine-tri-phosphate (ATP) was quantified employing the CDK2/CycE TR-FRET (TR-FRET=Time Resolved Fluorescence Energy Transfer) assay as described in the following paragraphs.
Recombinant fusion proteins of GST and human CDK2 and of GST and human CycE, expressed in insect cells (Sf9) and purified by Glutathion-Sepharose affinity chromatography, were purchase from ProQinase GmbH (Freiburg, Germany) As substrate for the kinase reaction biotinylated peptide biotin-Ttds-YISPLKSPYKISEG (C-terminus in amid form) was used which can be purchased e.g. form the company JERINI peptide technologies (Berlin, Germany).
(§1) For the assay 50 nl of a 100 fold concentrated solution of the test compound in DMSO was pipetted into a black low volume 384 well microtiter plate (Greiner Bio-One, Frickenhausen, Germany), 2 μl of a solution of CDK2/CycE in aqueous assay buffer [50 mM Tris/HCl pH 8.0, 10 mM MgCl2, 1.0 mM dithiothreitol, 0.1 mM sodium ortho-vanadate, 0.01% (v/v) Nonidet-P40 (Sigma)] were added and the mixture was incubated for 15 min at 22° C. to allow pre-binding of the test compounds to the enzyme before the start of the kinase reaction. Then the kinase reaction was started by the addition of 3 μl of a solution ATP (3.33 mM=>final conc. in the 5 μl assay volume is 2 mM) and substrate (1.25 μM=>final conc. in the 5 μl assay volume is 0.75 μM) in assay buffer and the resulting mixture was incubated for a reaction time of 25 min at 22° C. The concentration of CDK2/CycE was adjusted depending of the activity of the enzyme lot and was chosen appropriate to have the assay in the linear range, typical concentrations were in the range of 15 ng/ml. The reaction was stopped by the addition of 5 μl of a solution of TR-FRET detection reagents (0.2 μM streptavidine-XL665 [Cisbio Bioassays, Codolet, France] and 1 nM anti-RB(pSer807/pSer811)-antibody from BD Pharmingen [#558389] and 1.2 nM LANCE EU-W1024 labeled anti-mouse IgG antibody [Perkin-Elmer, product no. AD0077, as an alternative a Terbium-cryptate-labeled anti-mouse IgG antibody from Cisbio Bioassays can be used]) in an aqueous EDTA-solution (100 mM EDTA, 0.2% (w/v) bovine serum albumin in 100 mM HEPES/NaOH pH 7.0).
(§2) The resulting mixture was incubated 1 h at 22° C. to allow the formation of complex between the phosphorylated biotinylated peptide and the detection reagents. Subsequently the amount of phosphorylated substrate was evaluated by measurement of the resonance energy transfer from the Eu-chelate to the streptavidine-XL. Therefore, the fluorescence emissions at 620 nm and 665 nm after excitation at 350 nm were measured in a TR-FRET reader, e.g. a Rubystar (BMG Labtechnologies, Offenburg, Germany) or a Viewlux (Perkin-Elmer). The ratio of the emissions at 665 nm and at […] was taken as the measure for the amount of phosphorylated substrate. The data were normalised (enzyme reaction without inhibitor=0% inhibition, all other assay components but no enzyme=100% inhibition).

CDK9/CycT1 = target: T2, CDK9/CycT1 (Homo sapiens, UniProt P50750); assay: CDK9/CycT1 high ATP kinase assay (Method 1b); assay type: biochemical; conditions: 2 mM ATP
T2 construct: Recombinant full-length His-tagged human CDK9 and CycT1; His; purchased Invitrogen PV4131; host or cells: insect cells
T2 sequence (P50750 whole entry): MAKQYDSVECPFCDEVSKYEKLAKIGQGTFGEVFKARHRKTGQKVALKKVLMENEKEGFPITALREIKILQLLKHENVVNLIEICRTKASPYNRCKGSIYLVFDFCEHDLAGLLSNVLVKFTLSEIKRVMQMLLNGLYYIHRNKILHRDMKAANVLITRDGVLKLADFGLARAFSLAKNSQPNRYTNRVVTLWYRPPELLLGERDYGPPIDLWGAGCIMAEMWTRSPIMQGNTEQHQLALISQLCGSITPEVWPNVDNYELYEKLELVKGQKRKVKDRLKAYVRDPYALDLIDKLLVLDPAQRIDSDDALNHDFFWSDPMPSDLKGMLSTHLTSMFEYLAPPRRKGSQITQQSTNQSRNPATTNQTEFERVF
T2 sequence (O60563 whole entry partner): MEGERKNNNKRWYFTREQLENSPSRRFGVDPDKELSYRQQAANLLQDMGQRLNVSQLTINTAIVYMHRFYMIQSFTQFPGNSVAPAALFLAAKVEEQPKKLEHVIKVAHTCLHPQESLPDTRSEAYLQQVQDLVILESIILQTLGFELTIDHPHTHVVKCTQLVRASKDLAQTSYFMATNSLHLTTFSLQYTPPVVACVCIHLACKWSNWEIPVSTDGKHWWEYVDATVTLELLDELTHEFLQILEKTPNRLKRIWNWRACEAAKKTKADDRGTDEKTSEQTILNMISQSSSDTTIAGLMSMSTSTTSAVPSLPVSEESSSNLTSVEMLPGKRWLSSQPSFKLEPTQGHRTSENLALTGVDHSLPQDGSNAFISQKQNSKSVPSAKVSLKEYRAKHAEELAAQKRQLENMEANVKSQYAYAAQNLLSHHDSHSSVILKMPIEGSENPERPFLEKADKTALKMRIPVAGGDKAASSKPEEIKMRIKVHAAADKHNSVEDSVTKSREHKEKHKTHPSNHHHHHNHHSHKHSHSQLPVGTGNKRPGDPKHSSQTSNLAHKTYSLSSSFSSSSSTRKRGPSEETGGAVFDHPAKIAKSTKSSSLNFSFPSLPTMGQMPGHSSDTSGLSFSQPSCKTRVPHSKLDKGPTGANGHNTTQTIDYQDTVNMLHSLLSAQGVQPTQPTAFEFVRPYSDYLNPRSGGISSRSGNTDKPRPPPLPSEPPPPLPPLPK
Protocol: 1b. CDK9/CycT1 High ATP Kinase Assay
CDK9/CycT1-inhibitory activity of compounds of the present invention at a high ATP concentration after preincubation of enzyme and test compounds was quantified employing the CDK9/CycT1 TR-FRET assay as described in the following paragraphs.
Recombinant full-length His-tagged human CDK9 and CycT1, expressed in insect cells and purified by Ni-NTA affinity chromatography, were purchase from Invitrogen (Cat. No PV4131). As substrate for the kinase reaction biotinylated peptide biotin-Ttds-YISPLKSPYKISEG (C-terminus in amid form) was used which can be purchased e.g. form the company JERINI peptide technologies (Berlin, Germany).
as §1, with “CDK9/CycT1” for “CDK2/CycE”, “of adenosine-tri-phosphate (ATP, 3.3” for “ATP (3.33”, “(1.67” for “(1.25”, “1” for “0.75”, “0.5 μg/ml.” for “15 ng/ml.”, “AD0077])” for “AD0077, as an alternative a Terbium-cryptate-labeled anti-mouse IgG antibody from Cisbio Bioassays can be used])”
as §2, with “nm was” for “nm were”, “a HTRF” for “a TR-FRET”

| IC50 (CDK2/CycE) | IC50 (CDK9/CycT1) | Compound |
| --- | --- | --- |
| 1.51 µM | 0.049 µM | COc1cc(F)ccc1-c1cc(Nc2cc(CS(C)(=N)=O)ccn2)ncn1 (racemic) [Example 1, (rac)-6-(4-Fluoro-2-methoxyphenyl)-N-{4-[(S-methylsulfonimidoyl)methyl]pyridin-2-yl}pyrimidin-4-amine] |
| 1.13 µM | 0.011 µM | COc1cc(F)ccc1-c1cc(Nc2cc(CS(C)(=N)=O)cc(Cl)n2)ncn1 (racemic) [Example 4, (rac)-N-{6-Chloro-4-[(S-methylsulfonimidoyl)methyl]pyridin-2-yl}-6-(4-fluoro-2-methoxyphenyl)pyrimidin-4-amine] |
| 3.63 µM | 0.004 µM | COc1cc(F)ccc1-c1cc(Nc2cc(CS(C)(=N)=O)cc(C)n2)ncn1 (racemic) [Example 7, (rac)-6-(4-Fluoro-2-methoxyphenyl)-N-{6-methyl-4-[(S-methylsulfonimidoyl)methyl]pyridin-2-yl}pyrimidin-4-amine] |
| 0.797 µM | 0.003 µM | COc1cc(F)ccc1-c1cc(Nc2cc(CS(C)(=N)=O)cc(C(F)(F)F)n2)ncn1 (racemic) [Example 10, (rac)-6-(4-Fluoro-2-methoxyphenyl)-N-{4-[(S-methylsulfonimidoyl)methyl]-6-(trifluoromethyl)pyridin-2-yl}pyrimidin-4-amine] |
| 1.54 µM | 0.03 µM | COc1cc(F)ccc1-c1cc(Nc2cc(CS(C)(=N)=O)ccn2)ncn1 (single isomer, unassigned) [Example 2, 6-(4-Fluoro-2-methoxyphenyl)-N-{4-[(S-methylsulfonimidoyl)methyl]pyridin-2-yl}pyrimidin-4-amine] |
| 1.04 µM | 0.01 µM | COc1cc(F)ccc1-c1cc(Nc2cc(CS(C)(=N)=O)ccn2)ncn1 (single isomer, unassigned) [Example 3, 6-(4-Fluoro-2-methoxyphenyl)-N-{4-[(S-methylsulfonimidoyl)methyl]pyridin-2-yl}pyrimidin-4-amine] |
| 1.42 µM | 0.009 µM | COc1cc(F)ccc1-c1cc(Nc2cc(CS(C)(=N)=O)cc(Cl)n2)ncn1 (single isomer, unassigned) [Example 5, N-{6-Chloro-4-[(S-methylsulfonimidoyl)methyl]pyridin-2-yl}-6-(4-fluoro-2-methoxyphenyl)pyrimidin-4-amine] |
| 1.82 µM | 0.005 µM | COc1cc(F)ccc1-c1cc(Nc2cc(CS(C)(=N)=O)cc(Cl)n2)ncn1 (single isomer, unassigned) [Example 6, N-{6-Chloro-4-[(S-methylsulfonimidoyl)methyl]pyridin-2-yl}-6-(4-fluoro-2-methoxyphenyl)pyrimidin-4-amine] |
| 6.33 µM | 0.006 µM | COc1cc(F)ccc1-c1cc(Nc2cc(CS(C)(=N)=O)cc(C)n2)ncn1 (single isomer, unassigned) [Example 8, 6-(4-Fluoro-2-methoxyphenyl)-N-{6-methyl-4-[(S-methylsulfonimidoyl)methyl]pyridin-2-yl}pyrimidin-4-amine] |
| 4.4 µM | 0.002 µM | COc1cc(F)ccc1-c1cc(Nc2cc(CS(C)(=N)=O)cc(C)n2)ncn1 (single isomer, unassigned) [Example 9, 6-(4-Fluoro-2-methoxyphenyl)-N-{6-methyl-4-[(S-methylsulfonimidoyl)methyl]pyridin-2-yl}pyrimidin-4-amine] |
